Measured values reported in patent US9789114B2, “Compounds as HIF-1α inhibitors and manufacturing process thereof” (DONGGUK UNIVERSITY INDUSTRY-ACADEMIC COOPERATION FOUNDATION, priority 2011, dated 2017).
Where two headings read alike, the source gives them in different places.

How the values were obtained:
[1] = test system: HIF-1α-mediated HRE transcriptional activity; assay: Assay for inhibition of HIF-1α-mediated transcriptional activity (HRE reporter assay); assay type: cell-based, human; conditions: Homo sapiens, HCT-116, HCT116 cells, 12 hours under hypoxia (1% O2), read-out: Inhibitory activity against HIF-1α (10 μM)
Summary of the method: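 HCT116 human colon cancer cells co-transfected with pGL3 luciferase reporter carrying six HRE copies from human VEGF plus Renilla control, then treated with 0–20 μM compound for 12 h under hypoxia (1% O2). Inhibition taken from dual-luciferase reporter activity in lysates.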

[2] = target: T1, HIF-1α (Homo sapiens, UniProt Q16665); assay: Inhibition of hypoxia-induced HIF-1α accumulation, western blot in HCT116 cells; assay type: cell-based; conditions: HCT116, hypoxia 1% O2, 0-30 μM, 12 hours, FIG. 1
T1 construct: endogenous in cells; host or cells: HCT116 human colon cancer cells (ATCC #CCL-247)
T1 sequence (Q16665 whole entry): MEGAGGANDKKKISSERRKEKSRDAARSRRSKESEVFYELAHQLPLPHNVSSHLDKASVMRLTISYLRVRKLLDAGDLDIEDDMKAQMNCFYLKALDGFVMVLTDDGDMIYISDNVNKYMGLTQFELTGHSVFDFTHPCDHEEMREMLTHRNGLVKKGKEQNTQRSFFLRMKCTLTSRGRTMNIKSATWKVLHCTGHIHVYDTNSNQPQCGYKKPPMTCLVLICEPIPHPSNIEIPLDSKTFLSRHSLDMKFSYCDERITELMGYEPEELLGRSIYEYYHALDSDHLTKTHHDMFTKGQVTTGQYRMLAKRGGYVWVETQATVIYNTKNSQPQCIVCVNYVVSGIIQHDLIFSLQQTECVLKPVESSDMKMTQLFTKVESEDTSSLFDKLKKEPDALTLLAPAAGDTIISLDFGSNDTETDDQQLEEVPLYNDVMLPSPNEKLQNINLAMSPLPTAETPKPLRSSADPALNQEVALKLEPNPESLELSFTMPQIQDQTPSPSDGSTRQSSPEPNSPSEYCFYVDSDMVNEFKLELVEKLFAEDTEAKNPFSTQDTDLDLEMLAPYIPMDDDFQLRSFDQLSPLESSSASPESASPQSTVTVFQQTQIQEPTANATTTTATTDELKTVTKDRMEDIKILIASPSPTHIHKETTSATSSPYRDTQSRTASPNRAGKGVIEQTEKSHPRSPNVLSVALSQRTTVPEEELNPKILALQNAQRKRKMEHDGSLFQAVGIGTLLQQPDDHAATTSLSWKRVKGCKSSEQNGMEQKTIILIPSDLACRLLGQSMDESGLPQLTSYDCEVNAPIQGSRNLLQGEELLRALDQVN
Method: <Experiment 2> In Vitro Studies for Inhibition of Hypoxia-Induced HIF-1α Accumulation
Inhibition of HIF-1α accumulation by the compounds according to the present invention was determined in HCT116 human colon cancer cells. In particular, western blot analysis was used to identify the compounds, I-3, I-6, I-8, I-16, I-19, I-22˜I-24, and I-27˜I-36, which inhibited HIF-1α accumulation under hypoxia.
(§1) First, HCT116 human colon cancer cells (ATCC #CCL-247) were plated at the concentration of 2×10^5 cells/ml. After 24 hours, the cells were incubated under hypoxia (1% O2, 94% N2, and 5% CO2, expressed as 1% O2 in FIG. 1) for 4 hours in order to induce HIF-la accumulation. Cells were treated with the compounds at various concentrations (0, 3, 10, 20, and 30 μM) for 12 hours under hypoxia. The cells were then harvested, and lysed in RIPA buffer to obtain nuclear extracts. Cells grown at 20% O2 (normoxia) were used as control groups to compare HIF-1α-mediated gene expression under each condition. 30 μg of the nuclear extracts per sample was separated by SDS-PAGE (sodium dodecyl sulfate-polyacrylamide gel electrophoresis), and was then transferred to PVDF (polyvinylidene fluoride membrane) membranes. After membranes were probed with HIF-1α antibodies (R&D System), HIF-1α proteins were detected with HRP-conjugated secondary antibodies (Amersham-Pharmacia). GAPDH (Glyceraldehyde 3-phosphate dehydrogenase) was used as an internal control for loading in western blot analysis.

[3] = test system: GAPDH; assay: GAPDH expression level (internal control) in western blot, HCT116 cells; assay type: cell-based, human; conditions: HCT116, hypoxia 1% O2, 0-30 μM, 12 hours, FIG. 1
Method: as §1

[4] = test system: Chick embryo chorioallantoic membrane; assay: CAM (chick embryo chorioallantoic membrane) assay; assay type: in vivo; conditions: 10-20 μg on coverslip, 2 days, FIG. 2
Method: CAM (Chick embryo chorioallantoic membrane) assay was conducted as an in vivo model to determine whether the compounds according to the present invention, I-3, I-6, I-19, and I-22, had anti-angiogenic effects or not. DMSO-treated groups were used as negative controls.
According to the present invention, CAM assay was performed as follows.
Fertilized eggs were incubated periodically rolling at 37° C. with 50% humidity for 2-3 days. When eggs were erected, approximately 3 ml of albumin was extracted from the sharp edge of the eggs using a syringe. The hole of the eggs was sealed with a tape to prevent from dryness and contamination, and the hole of the eggs was put down and incubated for 2 to 3 days. After punching a hole with 1.5 cm diameter in the round part of eggs, opaque membrane was removed carefully. The compounds (10-20 μg) according to the present invention were placed and spread on thermanox coverslip equally to dry, and then the hole in the round part of eggs put on the upper part of the fertilized eggs that vessels grew. The eggs were examined under the dissecting microscope and the results were given in FIG. 2, after covering the hole with a coverglass to protect it from contamination for 2 days.

[5] = test system: HCT116 colon cancer cells; assay: In vivo anti-cancer activity by oral administration, HCT116 tumor in nude mice; set-up: species or system BALB/c nu/nu mice; conditions: for inhibition in vivo at 20 mg/kg: Mus musculus
Method: <Example 4> In Vivo Anti-Cancer Activity of Compounds by Oral Administration
(§2) In vivo anti-cancer activity of the compounds according to the present invention, I-3, I-6, I-8, I-16, I-19, I-22, I-23, and I-24, was measured in mice to evaluate in vivo efficacy by oral administration. Specifically, the nude mice were divided into test groups and control groups, each consisting of 4 mice. In vivo efficacy was evaluated by measuring body weight, tumor volume, and tumor weight.
(§3) Female nude mice 6 weeks old (BALB/c nu/nu, Charles River) were bred in germ-free breeding rooms maintained at constant temperature and humidity. After the nude mice were anesthetized, HCT116 colon cancer cells were implanted at a count of […] cells/mouse into the rectum in BALB/c nu/nu mice and then the incisions were closed with surgical clips. The size of tumor was measured by a caliper. When the size of transplanted tumor reached to 50˜60 mm^3, the above compounds according to the present invention were administered. In more detail, after the above compounds in test groups were dissolved at concentration of 20 mg/kg in a solvent containing 80% of physiological saline, 10% of DMAC (dimethylacetamide), and 10% Tween 80 (hereinafter referred to as ‘Solvent A’), […] of dissolved compounds were orally administered once a day. Mice in control groups were treated with […] of Solvent A alone once daily.
(§4) Tumor volume and body weight were measured to identify in vivo anti-cancer activity of the compounds according to the present invention by repetitive oral administration. Tumor volume and tumor growth inhibition (TGI) in Table 2 were calculated according to the below Mathematic FIG. 1 and FIG. 2, respectively. Tumor growth inhibition was converted to a percentage in Table 2.

[6] = Body weight change and side effects during 14 days of oral treatment in nude mice; assay type: in vivo, BALB/c nu/nu mice
Method: as §2, §3, §4
Moreover, severe side effects and statistically significant changes of body weight in all mice treated compounds were not shown for 14 days, comparing to control groups treated with vehicle. (Table 3)

[7] = day 3, 20 mg/kg oral once a day
[8] = day 5, 20 mg/kg oral once a day
[9] = day 7, 20 mg/kg oral once a day
[10] = day 10, 20 mg/kg oral once a day
[11] = day 12, 20 mg/kg oral once a day
[12] = day 14, 20 mg/kg oral once a day

**Q.** For `C[N+](C)(C)CCNC(=O)CCOc1ccc(C23CC4CC(CC(C4)C2)C3)cc1.[I-]` [Compound I-19, 2-(3-(4-(Adamantan-1-yl)phenoxy)propanamido)-N,N,N-trimethylethanaminium iodide], which inhibition at 10 µM [1] is on record?
**A.** 26 to 50%

**Q.** What about the HIF-1α degradation [2] of the same compound?
**A.** promoted HIF-1α degradation

**Q.** What about the “inhibitory effects on HIF-1α accumulation” value [2] of the same compound?
**A.** significant inhibitory effects on HIF-1α accumulation

**Q.** And the GAPDH expression levels [3]?
**A.** did not affect GAPDH expression levels

**Q.** And the “formation of vessels (anti-angiogenic effect)” value [4]?
**A.** inhibited formation of vessels

**Q.** What about the “inhibitory effects on tumor growth (TGI results)” value ([5]; 20 mg/kg oral once a day, 14 days) of the same compound?
**A.** significant inhibitory effects on tumor growth

**Q.** And the inhibition in vivo at 20 mg/kg ([5]; HCT-116, 72 h, day 3, 20 mg/kg oral once a day, read-out: TGI (tumor growth inhibition), tumor volume)?
**A.** 34.1%

**Q.** And the inhibition in vivo at 20 mg/kg ([5]; HCT-116, 120 h, day 5, 20 mg/kg oral once a day, read-out: TGI (tumor growth inhibition), tumor volume)?
**A.** 36.4%

**Q.** And the inhibition in vivo at 20 mg/kg ([5]; HCT-116, 168 h, day 7, 20 mg/kg oral once a day, read-out: TGI (tumor growth inhibition), tumor volume)?
**A.** 36.8%

**Q.** And the inhibition in vivo at 20 mg/kg ([5]; HCT-116, 240 h, day 10, 20 mg/kg oral once a day, read-out: TGI (tumor growth inhibition), tumor volume)?
**A.** 37.7%

**Q.** And the inhibition in vivo at 20 mg/kg ([5]; HCT-116, 288 h, day 12, 20 mg/kg oral once a day, read-out: TGI (tumor growth inhibition), tumor volume)?
**A.** 37.8%

**Q.** And the inhibition in vivo at 20 mg/kg ([5]; HCT-116, 336 h, day 14, 20 mg/kg oral once a day, read-out: TGI (tumor growth inhibition), tumor volume)?
**A.** 39.2%

**Q.** What about the inhibition in vivo at 20 mg/kg ([5]; HCT-116, 336 h, day 14, 20 mg/kg oral once a day, read-out: TGI (tumor growth inhibition), tumor weight) of the same compound?
**A.** 41.3%

**Q.** And the Tumor volume [5, 7]?
**A.** 22.4 ± 5.6 mm^3

**Q.** And the Tumor volume [5, 8]?
**A.** 58.8 ± 11.3 mm^3

**Q.** What about the Tumor volume [5, 9] of the same compound?
**A.** 110.4 ± 11.2 mm^3

**Q.** What about the Tumor volume [5, 10] of the same compound?
**A.** 162.3 ± 10.1 mm^3

**Q.** And the Tumor volume [5, 11]?
**A.** 278.8 ± 35.0 mm^3

**Q.** And the Tumor volume [5, 12]?
**A.** 404.7 ± 17.6 mm^3

**Q.** What about the Tumor weight [5, 12] of the same compound?
**A.** 1392.4 ± 153.0 mg

**Q.** And the Body weight change ([6]; day 0, 20 mg/kg oral once a day)?
**A.** 100.0 ± 0.0%

**Q.** And the Body weight change [6, 7]?
**A.** 104.0 ± 1.6%

**Q.** What about the Body weight change [6, 8] of the same compound?
**A.** 104.7 ± 3.1%

**Q.** What about the Body weight change [6, 9] of the same compound?
**A.** 104.6 ± 4.0%

**Q.** And the Body weight change [6, 10]?
**A.** 105.1 ± 4.3%

**Q.** What about the Body weight change [6, 11] of the same compound?
**A.** 103.4 ± 3.5%

**Q.** What about the Body weight change [6, 12] of the same compound?
**A.** 102.2 ± 3.8%
